Experimental data from ChEMBL document CHEMBL6177931, “Exploring diverse frontiers: Advancements of bioactive 4-aminoquinoline-based molecular hybrids in targeted therapeutics and beyond” (Eur J Med Chem, 2024).

Key:
Plasmodium falciparum [1] = assay: Antimalarial activity against chloroquine resistant sorbitol synchronized Plasmodium falciparum W2 assessed as inhibition of parasite growth incubated for 72 hrs by HRP2 ELISA based assay; type: functional, organism-based; settings: W2, 72 h
Plasmodium falciparum [2] = assay: Antimalarial activity against chloroquine sensitive sorbitol synchronized Plasmodium falciparum 3D7 assessed as inhibition of parasite growth incubated for 72 hrs by HRP2 ELISA based assay; type: functional, organism-based; settings: 3D7, 72 h
Plasmodium falciparum [3] = assay: Antiplasmodial activity against chloroquine resistant Plasmodium falciparum K1 infected in human erythrocytes incubated for 48 hrs by lactate dehydrogenase assay; type: functional, organism-based; settings: K1, Erythrocyte
Plasmodium falciparum [4] = assay: Antiplasmodial activity against chloroquine sensitive Plasmodium falciparum 3D7 incubated for 72 hrs by SYBR green I based fluorescence assay; type: functional, organism-based; settings: 3D7, 72 h
Plasmodium falciparum [5] = assay: Potency index, ratio of chloroquine IC50 to test compound IC50 for antimalarial activity against Plasmodium falciparum Dd2; type: functional

`COc1cc(NC(C)CCCN)c2ncccc2c1` (stereo not given) [PRIMAQUINE] was tested, and the IC50 (Plasmodium falciparum [1]) was 0.182 µM and the IC50 (Plasmodium falciparum [2]) was 1.12 µM.
Work on `CCOC(=O)c1nn(CCNc2ccnc3cc(Cl)ccc23)c2c1C(c1ccc(CC)cc1)C(C#N)=C(N)O2` (stereo not given) yielded an EC50 (Plasmodium falciparum [3]) of 0.02 µM.
`O=C(Cn1cc(COc2ccc(Br)cc2)nn1)NCCNc1ccnc2cc(Cl)ccc12` showed an IC50 (Plasmodium falciparum [4]) of 0.04 µM.
For `CC(C)Cc1ccc(C(C)C(=O)NCCNc2ccnc3cc(Cl)ccc23)cc1` (stereo not given), the “Ratio IC50” value (Plasmodium falciparum [5]) was 4.
